According to PubChem BioAssay (NCI):
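1) Cells in 96-well plates. 2) Compound, 48 h, 5 concentrations. 3) Linear interpolation between surrounding doses. 4) Unreached endpoint = highest concentration. GI50 = concentration required for 50% inhibition of growth. TGI is the concentration that stops growth completely.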

Legend:
Experiment in all cases: NCI tumour cell line growth inhibition, 48 h
[1] = test system: NCI-H460 lung
[2] = test system: DU-145 prostate
[3] = test system: SF-268 CNS
[4] = test system: MDA-MB-435
[5] = test system: HS 578T breast
[6] = test system: NCI-H226 lung
[7] = test system: SK-OV-3 ovarian
[8] = test system: HOP-92 NSCLC
[9] = test system: SK-MEL-28 melanoma

Compound: COc1ccccc1NC(=O)CC(=O)NN
- TGI [1]: > 100 µM
- TGI [2]: > 100 µM
- TGI [3]: > 100 µM
- TGI [4]: > 100 µM
- TGI [5]: > 100 µM
- TGI [6]: > 100 µM
- TGI [7]: > 100 µM
- TGI [8]: > 100 µM
- TGI [9]: > 100 µM

Compound: O=C1/C(=C/c2cccc3ccccc23)CCc2ccc([N+](=O)[O-])cc21
- TGI [1]: > 100 µM
- TGI [2]: > 100 µM
- TGI [3]: > 100 µM
- TGI [4]: 22.6 µM
- TGI [5]: 47.7 µM
- TGI [6]: > 100 µM
- TGI [7]: 77.8 µM
- TGI [8]: 74.4 µM
- TGI [9]: > 100 µM

Compound: OC(NN=C1CCCC1)(C(F)(F)Cl)C(F)(F)Cl
- TGI [1]: > 10 µM
- TGI [2]: > 10 µM
- TGI [3]: > 10 µM
- TGI [4]: > 10 µM
- TGI [5]: > 10 µM
- TGI [6]: > 10 µM
- TGI [7]: > 10 µM
- TGI [8]: > 10 µM
- TGI [9]: > 10 µM

Compound: Cc1c2cccc-2ccc2c3ccccc3n(C(=O)c3ccc(Cl)cc3)c12
- TGI [1]: > 100 µM
- TGI [2]: > 100 µM
- TGI [3]: > 100 µM
- TGI [4]: > 100 µM
- TGI [5]: > 100 µM
- TGI [6]: > 100 µM
- TGI [7]: > 100 µM
- TGI [8]: > 100 µM
- TGI [9]: > 100 µM

Compound: CCNc1cc2c3c(c1)CCN3CCC2
- TGI [1]: > 10 µM
- TGI [2]: > 10 µM
- TGI [3]: > 10 µM
- TGI [4]: > 10 µM
- TGI [5]: > 10 µM
- TGI [6]: > 10 µM
- TGI [7]: > 10 µM
- TGI [8]: > 10 µM
- TGI [9]: > 10 µM

Compound: CC(C)CCOC(=O)NC(Nc1ccc(F)cc1)(C(F)(F)F)C(F)(F)F
- TGI [1]: > 100 µM
- TGI [2]: > 100 µM
- TGI [3]: > 100 µM
- TGI [4]: > 100 µM
- TGI [5]: > 100 µM
- TGI [6]: > 100 µM
- TGI [7]: > 100 µM
- TGI [8]: > 100 µM
- TGI [9]: > 100 µM

Compound: O=C(O)/C=C\C(=O)Nn1c(Cc2ccc(Cl)cc2)n[nH]c1=O
- TGI [1]: > 100 µM
- TGI [2]: > 100 µM
- TGI [3]: > 100 µM
- TGI [4]: > 100 µM
- TGI [5]: > 100 µM
- TGI [6]: > 100 µM
- TGI [7]: > 100 µM

Compound: Cn1c(=O)sc2cc(C(=S)N3CCCCC3)ccc21
- TGI [1]: > 100 µM
- TGI [2]: > 100 µM
- TGI [3]: > 100 µM
- TGI [4]: > 100 µM
- TGI [5]: > 100 µM
- TGI [6]: > 100 µM
- TGI [7]: > 100 µM
- TGI [9]: > 100 µM

Compound: CC1(C)C=C(/C=N/Nc2ccccc2)C(C#N)=C(O)C1(C#N)C#N
- TGI [1]: > 100 µM
- TGI [2]: > 100 µM
- TGI [3]: > 100 µM
- TGI [4]: > 100 µM
- TGI [5]: > 100 µM
- TGI [6]: > 100 µM
- TGI [7]: > 100 µM
- TGI [8]: 99.6 µM
- TGI [9]: > 100 µM

Compound: C=C1CC(C)(c2cccc(Nc3nc4ccccc4c4occc34)c2)OC1=O (centres undefined)
- TGI [1]: 33.8 µM
- TGI [2]: 19.9 µM
- TGI [3]: 29.1 µM
- TGI [4]: 21.8 µM
- TGI [5]: 9.16 µM
- TGI [6]: 4.54 µM
- TGI [7]: 27.2 µM
- TGI [8]: 7.29 µM
- TGI [9]: 26.8 µM

Compound: CC1(C)CC[C@]2(C(=O)O)CC[C@]3(C)[C@H](C(=O)C=C4[C@@]5(C)C=C(C#N)C(=O)C(C)(C)[C@@H]5CC[C@]43C)[C@@H]2C1
- TGI [1]: 22.2 µM
- TGI [2]: 2.39 µM
- TGI [3]: 7.78 µM
- TGI [4]: 3 µM
- TGI [5]: 10.4 µM
- TGI [6]: 4.02 µM
- TGI [7]: 14.8 µM
- TGI [8]: 8.16 µM
- TGI [9]: 2.35 µM

Compound: CC1(C)Oc2ccc3c(=O)cc(-c4ccccc4)oc3c2C1C(=O)O (centres undefined)
- TGI [2]: > 100 µM
- TGI [3]: > 100 µM
- TGI [4]: > 100 µM
- TGI [5]: > 100 µM
- TGI [6]: > 100 µM
- TGI [7]: > 100 µM

Compound: COC(=O)Cn1cnc2c(Cl)nc(Nc3ccccc3)nc21
- TGI [1]: > 100 µM
- TGI [4]: 79.8 µM
- TGI [5]: 54.1 µM
- TGI [6]: > 100 µM
- TGI [7]: > 100 µM
- TGI [9]: > 100 µM

Compound: Clc1ccc(C2=CCN3CC=C(c4ccc(Cl)cc4)C23)cc1
- TGI [1]: 22.4 µM
- TGI [2]: 29.2 µM
- TGI [3]: 24.2 µM
- TGI [4]: 22.9 µM
- TGI [5]: 30.3 µM
- TGI [6]: 43.2 µM
- TGI [9]: 28 µM

Compound: Oc1ccc(Oc2cc3c(cc2Oc2ccc(O)cc2)-c2nc-3nc3[nH]c(nc4nc(nc5[nH]c(n2)c2cc(Oc6ccc(O)cc6)c(Oc6ccc(O)cc6)cc52)-c2cc(Oc5ccc(O)cc5)c(Oc5ccc(O)cc5)cc2-4)c2cc(Oc4ccc(O)cc4)c(Oc4ccc(O)cc4)cc32)cc1
- TGI [1]: > 100 µM
- TGI [3]: > 100 µM
- TGI [4]: > 100 µM
- TGI [5]: > 100 µM
- TGI [6]: > 100 µM
- TGI [7]: > 100 µM
- TGI [8]: > 100 µM
- TGI [9]: > 100 µM

Compound: NC(=S)NC/C=C/Cl
- TGI [1]: > 100 µM
- TGI [2]: > 100 µM
- TGI [4]: > 100 µM
- TGI [5]: > 100 µM
- TGI [6]: > 100 µM
- TGI [7]: > 100 µM
- TGI [8]: > 100 µM

Compound: O=C(O)c1ccccc1C1c2ccccc2Oc2ccccc21
- TGI [1]: > 100 µM
- TGI [2]: > 100 µM
- TGI [3]: > 100 µM
- TGI [4]: > 100 µM
- TGI [6]: 65.7 µM
- TGI [8]: 77.5 µM
- TGI [9]: > 100 µM

Compound: COc1ccc(C(=O)/C=C/c2cc(-c3cc(OC)c(OC)c(OC)c3)n[nH]2)cc1
- GI50 [1]: 1.72 µM
- TGI [1]: 3.75 µM
- GI50 [3]: 1.99 µM
- TGI [3]: 5.12 µM
- GI50 [4]: 2.2 µM
- TGI [4]: 5.7 µM
- GI50 [5]: 3.6 µM
- TGI [5]: > 100 µM
- GI50 [7]: 3.99 µM
- TGI [7]: 20.5 µM
- GI50 [9]: 2.12 µM
- TGI [9]: 4.42 µM

Compound: S=C1SC(=Nc2ccccc2)C(=Nc2ccccc2)N1c1ccc2ccccc2c1
- TGI [2]: > 100 µM
- TGI [4]: > 100 µM
- TGI [5]: > 100 µM
- TGI [6]: > 100 µM
- TGI [7]: > 100 µM
- TGI [9]: > 100 µM

Compound: N#Cc1c(N)nc2c3c1NC(=O)C(C(N)=O)C3c1ccccc1O2 (centres undefined)
- TGI [1]: > 100 µM
- TGI [2]: > 100 µM
- TGI [3]: > 100 µM
- TGI [4]: > 100 µM
- TGI [6]: > 100 µM
- TGI [7]: > 100 µM
- TGI [8]: 71.9 µM
- TGI [9]: > 100 µM

Compound: CC1=CCC[C@H]2[C@](C)(CC3=CC(=O)C(SCC(C)C)=CC3=O)[C@@H](C)CC[C@]12C
- TGI [1]: 31.5 µM
- TGI [2]: 30.9 µM
- TGI [4]: 32.5 µM
- TGI [6]: 28.9 µM
- TGI [7]: 35.1 µM
- TGI [8]: 17.9 µM
- TGI [9]: 32.5 µM

Compound: CC(=O)OCC1OC(n2c(C)c(C)c(C)c(C#N)c2=S)C(OC(C)=O)C(OC(C)=O)C1OC(C)=O (centres undefined)
- TGI [1]: > 100 µM
- TGI [2]: > 100 µM
- TGI [3]: > 100 µM
- TGI [4]: > 100 µM
- TGI [6]: > 100 µM
- TGI [7]: 80.9 µM
- TGI [8]: > 100 µM
- TGI [9]: > 100 µM

Compound: Cc1ncc(COP(=O)(O)O)c(/C=C2\SC(=S)NC2=O)c1O
- TGI [1]: > 100 µM
- TGI [2]: > 100 µM
- TGI [3]: > 100 µM
- TGI [4]: > 100 µM
- TGI [6]: > 100 µM
- TGI [7]: > 100 µM
- TGI [8]: > 100 µM
- TGI [9]: > 100 µM

Compound: O=C(c1ccc(Cl)cc1)N1CCN=C1c1cc2ccccc2c2ccccc12
- TGI [1]: 24.9 µM
- TGI [2]: 38.4 µM
- TGI [3]: 31.9 µM
- TGI [4]: 31.9 µM
- TGI [5]: 35.9 µM
- TGI [7]: 29.6 µM
- TGI [8]: 26.3 µM
- TGI [9]: 29.7 µM
